Experimental data from patent US20250303359A1, “COMPOUNDS AND METHODS FOR SAFE MITIGATION OF OCEAN ACIDIFICATION AND CAPTURE OF ATMOSPHERIC CARBON DIOXIDE” (Negative Emissions Materials, Inc., priority 2022, published 2025).
Where two headings read alike, the source gives them in different places.

Tests used:
[1] = system: Skeletonema pseudocastatum
[2] = system: Tetraselmis suecica; conditions: for survival after six days of regrowth/culture: 1 hour exposure to 100 g/L Mg(OH)2, 200 g/L NaOH or 100 g/L Ca(OH)2, dilution to 10 mg/L, 6 days; for surviving cells immediately after dilution: 1 hour exposure to 200 g/L NaOH or 100 g/L Ca(OH)2, then dilution to 10 mg/L
[3] = Sinking rate of Mg(OH)2 in seawater; type: physicochemical
[4] = system: Tetraselmis suecica cultures; conditions: hydroxide additions equivalent to 1 and 10 mg/L of Mg(OH)2, 6-day period
[5] = system: Danio rerio; conditions: acute, 96 h, n = 1; Mg(OH)2 paste
[6] = system: aquatic organisms
[7] = system: Tisbe battaglial; conditions: acute, 48 h, n = 1; Mg(OH)2 mixed as paste into local seawater
[8] = system: Tisbe battaglial; conditions: chronic, 7 days, n = 1; Mg(OH)2 mixed as paste into local seawater

Compound | dosage showing no negative impact ([1]; standardized ecotoxicity work) | dosages showing negative impact ([1]; standardized ecotoxicity work) | Lowest observed effect concentration (LOEC) ([1]; sub-chronic, 72 h, n = 2, Mg(OH)2 mixed as paste into local seawater) | survival after six days of regrowth/culture [2] | mortality compared to the control water ([2]; less than 10 hours of exposure to 100 g/L prior to dilution to 10 mg/L, survival six days after) | sinking rate ([3]; added as powder, visible particles (>100 μm)) | particle size distribution ([3]; added to seawater as paste) | sinking rate ([3]; small particles of about 10 micron, based on 4 cm sinking within 10 minutes, LISST instrument) | ecotoxicity (growth inhibition) [4] | pH of solution in seawater (0.05 g/L Mg(OH)2, after 115 minutes mixing (300 rpm), still increasing) | mixing time to full dissolution of particles (concentrations below ~10 mg/L, 60 m deep seawater pH 7.9-8.0, approx. 22 °C, 300 rpm) | maximum pH achieved (seawater, depends on Mg(OH)2 concentration) | Lowest observed effect concentration (LOEC) [5] | lowest tested concentration showing some toxicity effect on aquatic organisms ([6]; all standard test organisms) | concentration at which no toxicity effect was observed ([6]; any of the standard test organisms) | Lowest observed effect concentration (LOEC) [7] | Lowest observed effect concentration (LOEC) [8] | surviving cells immediately after dilution [2]
[Mg+2].[OH-].[OH-] [Mg(OH)2, magnesium hydroxide] | 25 mg/L | ≥ 50 mg/L | 50 mg/L | no mortality | no mortality | 0.8-6 km/day | 5-60 μm | ~6 m/day | not ecotoxic | 9.04 | approximately 3 hours | ~9.5 | >100 mg/L | 50 mg/L | 25 mg/L | 100 mg/L | >100 mg/L | 
[Ca+2].[OH-].[OH-] [Ca(OH)2, calcium hydroxide] |  |  |  | very few living cells |  |  |  |  | not ecotoxic |  |  |  |  |  |  |  |  | no surviving cells
sodium hydroxide [NaOH] |  |  |  | no surviving organisms |  |  |  |  |  |  |  |  |  |  |  |  |  | no surviving cells
